Converted amounts (≈) assume the structure as drawn. Like-named read-outs stand apart in the source and are kept apart here.
How the values were obtained:
[1] = tested on: Porphyromonas gingivalis; test: Antimicrobial activity determination (MIC); assay type: cell-based; settings: read-out: Minimimum Inhibitory Concentrations
Description: (§1) The antimicrobial activity of the targeted agents was assessed by determining the minimum inhibitory concentration (MIC). Pure cultures of various strains of oral bacterial species as indicated in Table 3 were combined with serial dilutions of the targeted agents in beef heart infusion broth (BHI); starting bacterial concentrations were approximately 1.0 x 10E6 colony forming units (CFU) per ml. The mixtures were incubated aerobically at 37 degrees C and the optical density (540 nm, path length 1cm) of the cultures was measured at 0.0, 24.0 and 48.0 hr using Bausch and Lomb Spec 20 variable wavelength spectrophotometer.

[2] = tested on: Neisseria subflava; test: Antimicrobial activity determination (MIC); assay type: cell-based; settings: for MIC: read-out: Minimimum Inhibitory Concentrations
Description: as §1

[3] = tested on: Streptococcus sobrinus; test: Antimicrobial activity determination (MIC); assay type: cell-based; settings: for MIC: read-out: Minimimum Inhibitory Concentrations
Description: as §1

[4] = tested on: Actinomyces naeslundii; test: Antimicrobial activity determination (MIC); assay type: cell-based; settings: for MIC: read-out: Minimimum Inhibitory Concentrations
Description: as §1

[5] = tested on: Prevotella intermedius; test: Antimicrobial activity determination (MIC); assay type: cell-based; settings: read-out: Minimimum Inhibitory Concentrations
Description: as §1

[6] = tested on: Candida albicans; test: Antimicrobial activity determination (MIC); assay type: cell-based; settings: for MIC: read-out: Minimimum Inhibitory Concentrations
Description: as §1

[7] = tested on: Streptococcus sanguis; test: Antimicrobial activity determination (MIC); assay type: cell-based; settings: for MIC: Streptococcus, read-out: Minimimum Inhibitory Concentrations
Description: as §1

[8] = tested on: Veillonella dispar; test: Antimicrobial activity determination (MIC); assay type: cell-based; settings: read-out: Minimimum Inhibitory Concentrations
Description: as §1

[9] = tested on: several species of oral bacteria; test: MIC assays on several species of oral bacteria (stated in words); assay type: cell-based; settings: result in words
Description: as §1

[10] = tested on: Actinomyces naeslundii PK29 and Streptococcus sanguis G9B; test: Bacterial coaggregation assay; assay type: cell-based; settings: for inhibition of coaggregation between A. naeslundii and S. sanguis: result in words
Description: A bacterial coaggregation assay was used to determine the ability of various amino sugars to interfere with lectin-mediated binding among various bacterial species. For instance, many Actinomyces naeslundii strains coaggregate with Streptococcus sanguis as a result of binding between a lectin produced by the A. naeslundii cells and β-galactose-containing structures on the surface of the streptococci. For the present assay, A. naeslundii PK29 and S. sanguis G9B were cultured overnight in a medium containing 2.5% tryptone, 1.5% yeast extract, 0.1% magnesium sulfate, and 1.0% fructose. The cells were then washed twice in a 1.0 mM potassium phosphate buffer (pH = 6.8) containing 1.0 mM calcium chloride, 0.1 mM magnesium chloride, and 50.0 mM potassium chloride (buffered KCl), after which they were resuspended in buffered KCl at an optical density (540 nm) of 1.5. The coaggregations were performed by combining 0.5 ml of each bacterial suspension with 0.2 ml of 5.0% bovine serum albumin (BSA) and 0.8 ml of an appropriate concentration of a targeted anti-plaque agent in 3.0 ml capped polystyrene cuvettes. The cuvettes (path length 1 cm) were gently inverted at room temperature, and the optical density (540 nm) was determined as a function of time (2.0 min intervals; 20 min). The instrument employed to measure optical density was a variable wavelength spectrophotometer (Gilson Response^(R) Spectrophotometer, bought from Gilson).
The activity of a tested compound was expressed as % inhibition relative to buffer controls (i.e., % inhibition = [1 - change in optical density (inhibitor)]/ change in optical density [control]) x 100 [formula] .
The ability of various aldobionamide compounds (prepared as described in Example 1) to target to β-galactose-specific binding proteins on A. naeslundii and thus to interfere with coaggregation interactions between A. naeslundii and S. sanquis was investigated. Coaggregation of Actinomyces naeslundii PK29 and Streptococcus sanguis G9B was performed as described in the Methods section (Bacterial Coaggregation Assay) above. % Inhibition was calculated as 1.0 - the change in optical density (540 nm) in the sample containing compound tested/the change in optical density in the coaggregation buffer control. The inhibitory activity of the antiplaque agents within the scope of the invention was compared to the inhibitory activity of lactobionic acid and N-alkyl gluconamides, which are not within the scope of the invention. The gluconamides were prepared analogously to N-alkyl lactobionamides from glucono-δ-lactone (Sigma Chemicals) and the requisite aliphatic amine.

[11] = Krafft point of a 1% dispersion in water; assay type: physicochemical; settings: 1% dispersion of the surfactant in water
Description: The temperature at and above which surfactants begin to form micelles instead of precipitates is referred to as Krafft point (Tk) and at this temperature the solubility of a surfactant becomes equal to its CMC.
Krafft point was measured by preparing a 1% dispersion of the surfactant in water. If the surfactant was soluble at room temperature, the solution was cooled to 0°C. […] If it precipitated out, the solution was slowly warmed with stirring in a water bath. The temperature at which the precipitate dissolved was determined to be the Krafft point.
If the Krafft point was above room temperature, the solution was first heated rapidly to dissolve all the surfactant. It was then cooled until precipitation occurred, and was then slowly warmed to determine the Krafft point described above.

[12] = BHI broth, aerobic, 37 degrees C
[13] = Prevotella intermedius, BHI broth, aerobic, 37 degrees C
[14] = Streptococcus sanguis, BHI broth, aerobic, 37 degrees C

Compound	MIC [1, 12] [µg/mL]	MIC [2, 12] [µg/mL]	MIC [3, 12] [µg/mL]	MIC [4, 12] [µg/mL]	MIC [5, 13] [µg/mL]	MIC [6, 12] [µg/mL]	MIC [7, 14] [µg/mL]	MIC [8, 12] [µg/mL]	Minimimum Inhibitory Concentrations [3, 12] [% w/v]	Minimimum Inhibitory Concentrations [4, 12] [% w/v]	Minimimum Inhibitory Concentrations [7, 14] [% w/v]	further results
CCCCCCCCCCCCCCCCNC(=O)[C@H](O)[C@@H](O)[C@H](O[C@@H]1O[C@H](CO)[C@H](O)[C@H](O)[C@H]1O)[C@H](O)CO [Hexadecyl lactobionamide, N-hexadecyl lactobionamide]	> 500	1000 (≈ 1720 µM)	1000 (≈ 1720 µM)	60 (≈ 103 µM)	> 500	1000 (≈ 1720 µM)	125 (≈ 215 µM)	> 500				
CCCNC(=O)[C@H](O)[C@@H](O)[C@H](O[C@@H]1O[C@H](CO)[C@H](O)[C@H](O)[C@H]1O)[C@H](O)CO [Propyl lactobionamide, N-propyl lactobionamide]	> 1000	> 1000	> 5000	> 5000	> 1000	> 1000	> 1000	> 1000				
CCCCCCCCNC(=O)[C@H](O)[C@@H](O)[C@H](O[C@@H]1O[C@H](CO)[C@H](O)[C@H](O)[C@H]1O)[C@H](O)CO [Octyl lactobionamide, N-octyl lactobionamide]	> 1000	> 1000	> 5000	> 5000	> 1000	> 1000	> 1000	> 1000				
Tetradecyl-glycyl-lactobionamide									0.05	0.0008	0.003	Minimimum Inhibitory Concentrations [2, 12]: 0.05 % w/v; Minimimum Inhibitory Concentrations [6, 12]: 0.05 % w/v
O=C(O)[C@H](O)[C@@H](O)[C@H](O[C@@H]1O[C@H](CO)[C@H](O)[C@H](O)[C@H]1O)[C@H](O)CO [Dodecyl ammonium lactobionate, Dodecylammonium lactobionate]		125			16			16	0.003	0.003	0.006	anti-microbial activity [9]: significant anti-microbial activity
CCCCCCCCCCCCOS(=O)(=O)[O-].[Na+] [Sodium dodecyl sulfate, reference compound]												MIC [1]: 2 µg/mL; MIC [2]: 8 µg/mL; MIC [3]: 60 µg/mL; MIC [4]: 8 µg/mL; MIC ([5]; Prevotella): 16 µg/mL; MIC [6]: 60 µg/mL; MIC [7]: 15 µg/mL; MIC [8]: 60 µg/mL
O=C(O)[C@H](O)[C@@H](O)[C@H](O[C@@H]1O[C@H](CO)[C@H](O)[C@H](O)[C@H]1O)[C@H](O)CO [Tetradecyl ammonium Lactobionate, Tetradecylammonium lactobionate]						120			0.0125	0.006	0.0016	inhibition at 500 µM ([10]; Actinomyces naeslundii, 0.5 mMol/L, coaggregation of A. naeslundii PK29 and S. sanguis G9B, relative to buffer control, read-out: Percent Inhibition): 0%; inhibition at 700 µM ([10]; Actinomyces naeslundii, 0.7 mMol/L, coaggregation of A. naeslundii PK29 and S. sanguis G9B, relative to buffer control, read-out: Percent Inhibition): 11%; inhibition at 900 µM ([10]; Actinomyces naeslundii, 0.9 mMol/L, coaggregation of A. naeslundii PK29 and S. sanguis G9B, relative to buffer control, read-out: Percent Inhibition): 66%; inhibition at 1400 µM ([10]; Actinomyces naeslundii, 1.4 mMol/L, coaggregation of A. naeslundii PK29 and S. sanguis G9B, relative to buffer control, read-out: Percent Inhibition): 99%; inhibition at 1800 µM ([10]; Actinomyces naeslundii, 1.8 mMol/L, coaggregation of A. naeslundii PK29 and S. sanguis G9B, relative to buffer control, read-out: Percent Inhibition): 100%; inhibition of coaggregation between A. naeslundii and S. sanguis [10]: effective inhibitor of coaggregation; anti-microbial activity [9]: significant anti-microbial activity
O=C(O)[C@H](O)[C@@H](O)[C@H](O[C@@H]1O[C@H](CO)[C@H](O)[C@H](O)[C@H]1O)[C@H](O)CO [Lactobionic acid, reference compound]									>0.5	>0.5	>0.5	
CCCCCNC(=O)[C@H](O)[C@@H](O)[C@H](O[C@@H]1O[C@H](CO)[C@H](O)[C@H](O)[C@H]1O)[C@H](O)CO [Pentyl lactobionmamide, N-pentyl lactobionamide]	> 1000	> 1000	> 5000	> 5000	> 1000	> 1000	> 1000	> 1000				
CCCCCCCCCCNC(=O)[C@H](O)[C@@H](O)[C@H](O)[C@H](O)CO [Decylgluconamide, reference compound]			> 5000	> 5000			> 5000					
CCCCCCCCCCCCOC(=O)CCNC(=O)[C@H](O)[C@@H](O)[C@H](O[C@@H]1O[C@H](CO)[C@H](O)[C@H](O)[C@H]1O)[C@H](O)CO [Dodecyl-B-alanyl-lactobionamide, N-lactobionyl dodecyl β-alanate]		500 (≈ 837 µM)	1000 (≈ 1670 µM)	125 (≈ 209 µM)		500 (≈ 837 µM)	125 (≈ 209 µM)					
CCCCCCCCCCCCCCNC(=O)[C@H](O)[C@@H](O)[C@H](O[C@@H]1O[C@H](CO)[C@H](O)[C@H](O)[C@H]1O)[C@H](O)CO [Tetradecyl lactobionamide, N-tetradecyl lactobionamide]		60 (≈ 108 µM)	125 (≈ 226 µM)	15 (≈ 27.1 µM)	8 (≈ 14.4 µM)	30 (≈ 54.2 µM)	30 (≈ 54.2 µM)	< 8				Krafft Point [11]: 46 °C
CCCCCCCCCCCCCCN.Cl [tetradecyl ammonium hydrochloride, reference compound]												inhibition of coaggregation between A. naeslundii and S. sanguis [10]: inhibited coaggregation; anti-microbial activity [9]: had antibacterial activity

Source: patent publication EP0551675A1, “Oral hygiene compositions containing antiplaque agents” (UNILEVER N.V., priority 1991, dated 1993)
